Among the data in patent US20240108702A1, “Use Of Naturally Occurring Cyclic Peptides For Treatment Of SARS-COV-2 Infection” (The University of Southern California, priority 2021, published 2024) are AUC(0-inf) and MTD values, retold here.

Where a SMILES comes first, the peptide text is derived from it. Bridges are numbered along the chain shown (N, C = ends).

Series [1] is described as follows: Mouse model of LPS-induced acute lung injury (ALI), subcutaneous injection. Conditions: in vivo, sc.
Series [2] in a line: in vivo. Conditions: rat.

What is called AUC(0-inf) is total exposure, with the tail of the curve extrapolated. Read a high AUC(0-inf) as high exposure. As to `CC[C@H](C)[C@@H]1NC(=O)[C@@H]2CSSC[C@H](NC(=O)[C@H](CCCNC(=N)N)NC(=O)[C@@H]3CSSC[C@H](NC1=O)C(=O)N[C@@H]([C@@H](C)O)C(=O)N[C@@H](CCCNC(=N)N)C(=O)NCC(=O)N[C@@H](Cc1ccccc1)C(=O)N3)C(=O)N[C@@H](CC(C)C)C(=O)N[C@H]1CSSC[C@H](NC(=O)[C@H](C(C)C)NC(=O)CNC(=O)[C@H](CCCNC(=N)N)NC(=O)[C@H](CCCNC(=N)N)NC1=O)C(=O)N[C@@H](CCCNC(=N)N)C(=O)N2` [Peptide 1] (cyclo(GFCRCLCRRGVCRCICTR); disulfide 3-16, 5-14, 7-12), the AUC(0-inf) in series [1] (5 mg/kg) was 3870 ng·h/mL; in series [1] (25 mg/kg), 9000 ng·h/mL. The MTD in series [2] was found to be 20 mg/kg.
